System: 287954-098-R-J1 tumor spheroid viability
Test: Anticancer human tumor 287954-098-R-J1 patient-derived Ewing sarcoma cell line growth inhibition
Conditions: spheroids with HUVEC and MSC; for IC50: curve of first compound; for viability, T/C: stronger effect = lower value
Outline: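 Single agents and combinations were tested on spheroids built from tumor cells plus HUVEC and hMSC, at half-log dilutions starting at or near clinical Cmax, else 10 microM; final DMSO 0.25% (v/v).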

[1] = second compound 30 pM, first compound 0.0316 µM
[2] = second compound 30 pM, first compound 0.1 µM
[3] = second compound 30 pM, first compound 0.316 µM
[4] = second compound 30 pM, first compound 1 µM
[5] = second compound 30 pM, first compound 3.16 µM
[6] = second compound 30 pM, first compound 10 µM
[7] = second compound 94.9 pM, first compound 0.0316 µM
[8] = second compound 94.9 pM, first compound 0.1 µM
[9] = second compound 94.9 pM, first compound 0.316 µM
[10] = second compound 94.9 pM, first compound 1 µM
[11] = second compound 94.9 pM, first compound 3.16 µM
[12] = second compound 94.9 pM, first compound 10 µM
[13] = second compound 0.0003 µM, first compound 0.0316 µM
[14] = second compound 0.0003 µM, first compound 0.1 µM
[15] = second compound 0.0003 µM, first compound 0.316 µM
[16] = second compound 0.0003 µM, first compound 1 µM
[17] = second compound 0.0003 µM, first compound 3.16 µM
[18] = second compound 0.0003 µM, first compound 10 µM
[19] = second compound 0.000949 µM, first compound 0.0316 µM
[20] = second compound 0.000949 µM, first compound 0.1 µM
[21] = second compound 0.000949 µM, first compound 0.316 µM
[22] = second compound 0.000949 µM, first compound 1 µM
[23] = second compound 0.000949 µM, first compound 3.16 µM
[24] = second compound 0.000949 µM, first compound 10 µM
[25] = second compound 0.003 µM, first compound 0.0316 µM
[26] = second compound 0.003 µM, first compound 0.1 µM
[27] = second compound 0.003 µM, first compound 0.316 µM
[28] = second compound 0.003 µM, first compound 1 µM
[29] = second compound 0.003 µM, first compound 3.16 µM
[30] = second compound 0.003 µM, first compound 10 µM
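Note: spheroids exposed to compound for 7 days before viability readout.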
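Throughout, for viability, T/C: luminescent signal taken as surrogate of viable cell content; 100% = DMSO vehicle control viability and lower means growth inhibition.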

COc1cc(C)[nH]c(=O)c1CN1CCc2c(Cl)cc(C(OC)C3COC3)c(Cl)c2C1=O (stereo not given) + Cn1nnc2c(C(N)=O)ncn2c1=O
IC50 (second compound 1 µM): > 10 µM
IC50 (second compound 3.16 µM): > 10 µM
IC50 (second compound 10 µM): > 10 µM
IC50 (second compound 31.6 µM): > 10 µM
IC50 (second compound 100 µM): > 10 µM
viability, T/C (second compound 1 µM, first compound 0.0316 µM): 98%
viability, T/C (second compound 1 µM, first compound 0.1 µM): 89.7%
viability, T/C (second compound 1 µM, first compound 0.316 µM): 96.8%
viability, T/C (second compound 1 µM, first compound 1 µM): 93.3%
viability, T/C (second compound 1 µM, first compound 3.16 µM): 89%
viability, T/C (second compound 1 µM, first compound 10 µM): 90.7%
viability, T/C (second compound 3.16 µM, first compound 0.0316 µM): 105%
viability, T/C (second compound 3.16 µM, first compound 0.1 µM): 100%
viability, T/C (second compound 3.16 µM, first compound 0.316 µM): 96.5%
viability, T/C (second compound 3.16 µM, first compound 1 µM): 91.9%
viability, T/C (second compound 3.16 µM, first compound 3.16 µM): 86.9%
viability, T/C (second compound 3.16 µM, first compound 10 µM): 93.3%
viability, T/C (second compound 10 µM, first compound 0.0316 µM): 102%
viability, T/C (second compound 10 µM, first compound 0.1 µM): 99.6%
viability, T/C (second compound 10 µM, first compound 0.316 µM): 90.1%
viability, T/C (second compound 10 µM, first compound 1 µM): 89.6%
viability, T/C (second compound 10 µM, first compound 3.16 µM): 89.9%
viability, T/C (second compound 10 µM, first compound 10 µM): 93%
viability, T/C (second compound 31.6 µM, first compound 0.0316 µM): 102%
viability, T/C (second compound 31.6 µM, first compound 0.1 µM): 97.4%
viability, T/C (second compound 31.6 µM, first compound 0.316 µM): 93.3%
viability, T/C (second compound 31.6 µM, first compound 1 µM): 89.8%
viability, T/C (second compound 31.6 µM, first compound 3.16 µM): 90.7%
viability, T/C (second compound 31.6 µM, first compound 10 µM): 96.1%
viability, T/C (second compound 100 µM, first compound 0.0316 µM): 95%
viability, T/C (second compound 100 µM, first compound 0.1 µM): 99.9%
viability, T/C (second compound 100 µM, first compound 0.316 µM): 87.7%
viability, T/C (second compound 100 µM, first compound 1 µM): 83.9%
viability, T/C (second compound 100 µM, first compound 3.16 µM): 87%
viability, T/C (second compound 100 µM, first compound 10 µM): 83.5%

CC(C)n1c(=O)n(C)c2cnc3cc(F)c(-c4ccc(OCCCN5CCCCC5)nc4)cc3c21 + COc1cc2c(cc1O)CCNC21CSC2c3c(OC(C)=O)c(C)c4c(c3C(COC1=O)N1C(O)C3Cc5cc(C)c(OC)c(O)c5C(C21)N3C)OCO4
IC50 (second compound 30 pM): 4.53 µM
IC50 (second compound 94.9 pM): < 0.0316 µM
IC50 (second compound 0.0003 µM): < 0.0316 µM
IC50 (second compound 0.000949 µM): < 0.0316 µM
IC50 (second compound 0.003 µM): < 0.0316 µM
viability, T/C [1]: 44.4%
viability, T/C [2]: 84.8%
viability, T/C [3]: 62.4%
viability, T/C [4]: 85.3%
viability, T/C [5]: 81.3%
viability, T/C [6]: 2.07%
viability, T/C [7]: 14.9%
viability, T/C [8]: 14.4%
viability, T/C [9]: 8.68%
viability, T/C [10]: 14.2%
viability, T/C [11]: 8.71%
viability, T/C [12]: 0.47%
viability, T/C [13]: 1.47%
viability, T/C [14]: 1.47%
viability, T/C [15]: 1.52%
viability, T/C [16]: 1.56%
viability, T/C [17]: 1.71%
viability, T/C [18]: 0.41%
viability, T/C [19]: 0.31%
viability, T/C [20]: 0.27%
viability, T/C [21]: 0.36%
viability, T/C [22]: 0.6%
viability, T/C [23]: 0.33%
viability, T/C [24]: 0.36%
viability, T/C [25]: 0.18%
viability, T/C [26]: 0.2%
viability, T/C [27]: 0.18%
viability, T/C [28]: 0.23%
viability, T/C [29]: 0.25%
viability, T/C [30]: 0.4%

Cc1cc(C)c(CNC(=O)c2cc(-c3ccc(CN4CCOCC4)cc3)cc3c2cnn3C2CCCC2)c(=O)[nH]1 + COc1cc2c(cc1O)CCNC21CSC2c3c(OC(C)=O)c(C)c4c(c3C(COC1=O)N1C(O)C3Cc5cc(C)c(OC)c(O)c5C(C21)N3C)OCO4
IC50 (second compound 30 pM): > 10 µM
IC50 (second compound 94.9 pM): > 10 µM
IC50 (second compound 0.0003 µM): > 10 µM
IC50 (second compound 0.000949 µM): < 0.0316 µM
IC50 (second compound 0.003 µM): < 0.0316 µM
viability, T/C [1]: 106%
viability, T/C [2]: 108%
viability, T/C [3]: 106%
viability, T/C [4]: 107%
viability, T/C [5]: 117%
viability, T/C [6]: 116%
viability, T/C [7]: 106%
viability, T/C [8]: 105%
viability, T/C [9]: 105%
viability, T/C [10]: 109%
viability, T/C [11]: 108%
viability, T/C [12]: 117%
viability, T/C [13]: 96.7%
viability, T/C [14]: 109%
viability, T/C [15]: 108%
viability, T/C [16]: 113%
viability, T/C [17]: 103%
viability, T/C [18]: 102%
viability, T/C [19]: 0.27%
viability, T/C [20]: 0.28%
viability, T/C [21]: 0.23%
viability, T/C [22]: 0.2%
viability, T/C [23]: 0.18%
viability, T/C [24]: 0.25%
viability, T/C [25]: 0.2%
viability, T/C [26]: 0.23%
viability, T/C [27]: 0.15%
viability, T/C [28]: 0.12%
viability, T/C [29]: 0.12%
viability, T/C [30]: 0.22%

COc1ccc([C@@H](O)c2cc(-c3ncnc4cc(N5CCOCC5)ccc34)c(F)cc2Cl)nn1 + COc1cc2c(cc1O)CCNC21CSC2c3c(OC(C)=O)c(C)c4c(c3C(COC1=O)N1C(O)C3Cc5cc(C)c(OC)c(O)c5C(C21)N3C)OCO4
IC50 (second compound 30 pM): > 10 µM
IC50 (second compound 94.9 pM): > 10 µM
IC50 (second compound 0.0003 µM): 0.587 µM
IC50 (second compound 0.000949 µM): < 0.0316 µM
IC50 (second compound 0.003 µM): < 0.0316 µM
viability, T/C [1]: 101%
viability, T/C [2]: 99.2%
viability, T/C [3]: 100%
viability, T/C [4]: 109%
viability, T/C [5]: 104%
viability, T/C [6]: 94.3%
viability, T/C [7]: 109%
viability, T/C [8]: 112%
viability, T/C [9]: 108%
viability, T/C [10]: 109%
viability, T/C [11]: 108%
viability, T/C [12]: 72.8%
viability, T/C [13]: 109%
viability, T/C [14]: 109%
viability, T/C [15]: 103%
viability, T/C [16]: 4.2%
viability, T/C [17]: 0.48%
viability, T/C [18]: 1.07%
viability, T/C [19]: 0.54%
viability, T/C [20]: 0.53%
viability, T/C [21]: 0.35%
viability, T/C [22]: 0.22%
viability, T/C [23]: 0.12%
viability, T/C [24]: 0.32%
viability, T/C [25]: 0.43%
viability, T/C [26]: 0.47%
viability, T/C [27]: 0.36%
viability, T/C [28]: 0.33%
viability, T/C [29]: 0.32%
viability, T/C [30]: 0.48%
